The record followed here is patent US20090118332A1, “Therapeutic Agents - 551” (AstraZeneca AB, priority 2006, published 2009).

Broadly, the inhibition is the change of the read-out against control, counted positive when it falls.

In this test the target is T1, human Fatty Acid Synthase (Homo sapiens, UniProt P49327).
T1 construct: made in house
Briefly: Human FAS enzyme assay (decrease in NADPH fluorescence). The test is classed as biochemical. The following applies: for inhibition at 100 µM: % inhibition at a concentration of 100 μmolar; for IC50, inhibition of human Fatty Acid Synthase: FAS enzyme assay, IC50 from fitted sigmoid curves. On the procedure:
Human and Rat FAS Enzyme Assay.
Fatty acid synthase is an enzyme complex that harbours seven enzymatic activities catalysing the reductive synthesis of long chain fatty acids from acetyl CoA and malonyl CoA to palmitate. When acetyl CoA and malonyl CoA are forming palmitate NADPH is consumed forming NADP. Since NADPH is fluorescent but not NADP the reaction can be measured by analysing the decrease in fluorescence.
Compounds were added to a black 384 well plate (Matrix) in a volume of 5 μl consisting of 20% DMSO and 80% Tris buffer pH 7.5, at a top concentration of 1 mM. NADPH, 30 μl of 166.6 μM, formulated in assay buffer (0.1M Tris ph7.5, 0.1 mM EDTA, 1 mM glutathione, 0.05% BSA), was then added to all of the wells of the plate. Fatty acid synthase Human or rat enzyme (0.4 μg, produced in house), dissolved in 20 mM Tris/HCl pH 7.5, 5 mM BOG, 1 mM TCEP, 10% glycerol, 1 mM EDTA, 150 mM NaCl, was then added to the plate in a volume of 10 μl. Enzyme was added to all but the last two columns of the plate, to which, 10 μl of assay buffer was added (0.1M Tris ph7.5, 0.1 mM EDTA, 1 mM glutathione, 0.05% BSA) to provide a no enzyme assay control. Following a 15-minute incubation period, at room temperature, the plates were read on an Envision plate reader using 340 nm excitation and 460 nm emission filters. This served as a time zero background read. Substrates (an equal mix of both malonyl and acetyl CoA) were then added to the plates in a total volume of 5 μl. The concentrations of malonyl and acetyl CoA in the mixture were 500 μM and 150 μM respectively. Both were prepared as 10 mM stock solutions in distilled water and were subsequently diluted to working concentrations in assay buffer. Plates were then incubated for a further 60 minutes, at room temperature, before being read again on the Envision reader using the same parameters as previously used. The data was analysed by subtracting the background time zero data from that generated following the final 60 minute incubate and the percent inhibition compared to the maximum and minimum assay controls was determined. Sigmoid curves were fitted using Origin 7.5 Client software and IC50 values were determined.

T1 sequence (P49327 whole entry): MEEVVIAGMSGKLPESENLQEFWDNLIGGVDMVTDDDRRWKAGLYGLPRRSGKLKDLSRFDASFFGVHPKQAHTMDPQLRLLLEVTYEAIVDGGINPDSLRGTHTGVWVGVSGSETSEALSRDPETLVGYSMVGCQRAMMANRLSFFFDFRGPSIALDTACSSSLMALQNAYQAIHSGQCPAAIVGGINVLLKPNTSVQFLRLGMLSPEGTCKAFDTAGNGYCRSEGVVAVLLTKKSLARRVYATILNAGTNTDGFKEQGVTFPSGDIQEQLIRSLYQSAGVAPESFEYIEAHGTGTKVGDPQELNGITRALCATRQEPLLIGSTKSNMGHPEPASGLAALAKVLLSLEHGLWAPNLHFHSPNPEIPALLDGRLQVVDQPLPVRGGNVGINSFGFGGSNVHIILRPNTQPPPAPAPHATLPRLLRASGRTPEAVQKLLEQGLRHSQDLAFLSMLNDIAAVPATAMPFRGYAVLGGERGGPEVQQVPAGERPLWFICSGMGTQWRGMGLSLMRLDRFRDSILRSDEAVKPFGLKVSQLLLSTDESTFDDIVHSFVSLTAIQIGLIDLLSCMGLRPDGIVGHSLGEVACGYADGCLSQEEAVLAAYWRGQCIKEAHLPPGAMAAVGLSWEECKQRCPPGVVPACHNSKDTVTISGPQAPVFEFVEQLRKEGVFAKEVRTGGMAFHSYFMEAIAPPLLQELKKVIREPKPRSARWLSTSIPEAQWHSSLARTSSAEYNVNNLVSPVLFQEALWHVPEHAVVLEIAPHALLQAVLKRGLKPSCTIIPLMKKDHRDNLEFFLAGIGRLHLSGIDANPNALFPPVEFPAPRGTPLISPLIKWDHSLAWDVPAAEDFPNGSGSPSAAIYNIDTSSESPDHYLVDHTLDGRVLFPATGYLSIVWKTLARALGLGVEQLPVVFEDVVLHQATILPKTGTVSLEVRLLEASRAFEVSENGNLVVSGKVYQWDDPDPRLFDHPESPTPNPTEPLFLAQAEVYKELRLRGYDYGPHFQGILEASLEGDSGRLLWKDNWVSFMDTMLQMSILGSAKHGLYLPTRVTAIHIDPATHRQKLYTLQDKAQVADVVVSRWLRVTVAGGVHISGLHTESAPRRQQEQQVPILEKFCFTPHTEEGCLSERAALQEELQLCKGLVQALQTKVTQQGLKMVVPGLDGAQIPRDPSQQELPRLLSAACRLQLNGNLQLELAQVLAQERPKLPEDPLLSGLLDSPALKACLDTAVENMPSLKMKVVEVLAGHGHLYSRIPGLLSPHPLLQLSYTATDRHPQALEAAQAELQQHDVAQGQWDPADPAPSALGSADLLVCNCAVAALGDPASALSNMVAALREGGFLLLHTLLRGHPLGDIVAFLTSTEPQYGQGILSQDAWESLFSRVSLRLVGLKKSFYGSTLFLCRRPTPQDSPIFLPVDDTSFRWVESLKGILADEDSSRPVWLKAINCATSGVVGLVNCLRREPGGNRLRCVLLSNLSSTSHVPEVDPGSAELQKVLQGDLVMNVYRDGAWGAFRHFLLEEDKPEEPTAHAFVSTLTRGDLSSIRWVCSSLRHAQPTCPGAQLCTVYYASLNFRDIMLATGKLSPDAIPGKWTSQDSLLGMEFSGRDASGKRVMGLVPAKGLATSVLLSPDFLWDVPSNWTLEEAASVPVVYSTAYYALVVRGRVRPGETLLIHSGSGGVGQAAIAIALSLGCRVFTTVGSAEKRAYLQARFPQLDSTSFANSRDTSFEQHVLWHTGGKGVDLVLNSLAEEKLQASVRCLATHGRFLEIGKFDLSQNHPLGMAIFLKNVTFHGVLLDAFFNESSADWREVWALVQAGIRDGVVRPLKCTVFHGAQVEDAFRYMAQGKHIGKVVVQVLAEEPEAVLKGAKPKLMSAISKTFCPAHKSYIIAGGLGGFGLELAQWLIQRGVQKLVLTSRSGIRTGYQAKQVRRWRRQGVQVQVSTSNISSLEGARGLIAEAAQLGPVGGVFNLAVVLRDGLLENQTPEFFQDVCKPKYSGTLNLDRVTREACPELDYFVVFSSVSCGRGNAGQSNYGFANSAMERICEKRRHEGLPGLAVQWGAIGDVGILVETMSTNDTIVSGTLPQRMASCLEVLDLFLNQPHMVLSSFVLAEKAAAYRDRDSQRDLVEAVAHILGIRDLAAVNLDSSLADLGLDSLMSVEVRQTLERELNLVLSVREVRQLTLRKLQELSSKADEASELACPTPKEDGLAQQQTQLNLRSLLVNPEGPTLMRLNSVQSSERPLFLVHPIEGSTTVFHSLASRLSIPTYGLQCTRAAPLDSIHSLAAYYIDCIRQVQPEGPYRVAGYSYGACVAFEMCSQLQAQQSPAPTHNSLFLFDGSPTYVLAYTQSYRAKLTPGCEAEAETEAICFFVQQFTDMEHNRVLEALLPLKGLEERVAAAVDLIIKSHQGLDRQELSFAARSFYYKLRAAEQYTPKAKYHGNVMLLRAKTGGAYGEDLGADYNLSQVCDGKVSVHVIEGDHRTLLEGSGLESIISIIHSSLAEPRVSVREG

`COc1ccc([C@@H](C)NC(=O)Nc2cc(C(=O)N3CCC(c4ccc(C#N)cc4)CC3)ccc2C)cc1` [Example 84, 1-[5-[4-(4-cyanophenyl)piperidine-1-carbonyl]-2-methyl-phenyl]-3-[(1R)-1-(4-methoxyphenyl)ethyl]urea]: the inhibition at 100 µM was determined as 92.3%.

In the case of `Cc1ccc(C(=O)N2CCC(c3ccc(C#N)cc3)CC2)cc1NC(=O)NCCCC(=O)O` [Example 407, 4-[[5-[4-(4-cyanophenyl)piperidine-1-carbonyl]-2-methylphenyl]carbamoylamino]butanoic acid], the inhibition at 100 µM was determined as 104%.

On to `Cc1ccc(C(=O)N2CCC(c3ccc(C#N)cc3)CC2)cc1NC(=O)NCCNS(=O)(=O)c1ccccc1` [Example 86, 3-[2-(benzenesulfonamido)ethyl]-1-[5-[4-(4-cyanophenyl)piperidine-1-carbonyl]-2-methyl-phenyl]urea], for which the inhibition at 100 µM was 94%.

Turning to `Cc1ccc(C(=O)N2CCC(c3ccc(C#N)cc3)CC2)cc1NC(=O)NC(C)(C)CO` [Example 190, 1-[5-[4-(4-cyanophenyl)piperidine-1-carbonyl]-2-methyl-phenyl]-3-(1-hydroxy-2-methyl-propan-2-yl)urea], the inhibition at 100 µM was 82.9%.

On to `CS(=O)(=O)c1ccc(C(=O)N2CCC(c3ccc(C#N)cc3)CC2)cc1NC(=O)NCc1ccccc1` [3-benzyl-1-[5-[4-(4-cyanophenyl)piperidine-1-carbonyl]-2-methylsulfonylphenyl]urea], for which the “IC50, inhibition of human Fatty Acid Synthase” value (“IC50, inhibition” for short) is “do not have IC50s in the range of about 0.001 μM to about 30 μM”.

On to `Cc1ccc(C(=O)N2CCC(c3ccc(C#N)cc3)CC2)cc1NC(=O)NCCN` [Example 103, 3-(2-aminoethyl)-1-[5-[4-(4-cyanophenyl)piperidine-1-carbonyl]-2-methyl-phenyl]urea], for which the inhibition at 100 µM was determined as 91.8%.

With `Cc1ccc(C(=O)N2CCC(c3ccc(C#N)cc3)CC2)cc1NC(=O)NCCc1cccs1` [Example 63, 1-[5-[4-(4-cyanophenyl)piperidine-1-carbonyl]-2-methyl-phenyl]-3-(2-thiophen-2-ylethyl)urea], the inhibition at 100 µM came to 93.4%.

As for `COC[C@@H](CO)NC(=O)Nc1cc(C(=O)N2CCC(c3ccc(C#N)cc3)CC2)ccc1C` [Example 198, 1-[5-[4-(4-cyanophenyl)piperidine-1-carbonyl]-2-methyl-phenyl]-3-[(2R)-1-hydroxy-3-methoxy-propan-2-yl]urea], the inhibition at 100 µM was determined as 87.9%.

`Cc1ccc(C(=O)N2CCC(c3ccc(C#N)cc3)CC2)cc1NC(=O)NCCNC(=O)OC(C)(C)C` [Example 102, tert-butyl N-[2-[[5-[4-(4-cyanophenyl)piperidine-1-carbonyl]-2-methyl-phenyl]carbamoylamino]ethyl]carbamate]: the inhibition at 100 µM was 91.9%.

On to `CC(C)NC(=O)Nc1ccc(S(C)(=O)=O)c(C(=O)N2CCC(c3ccc(C#N)cc3)CC2)c1` [3-[3-[4-(4-cyanophenyl)piperidine-1-carbonyl]-4-methylsulfonylphenyl]-1-propan-2-ylurea], for which the “IC50, inhibition” value is “do not have IC50s in the range of about 0.001 μM to about 30 μM”.

For the molecule `Cc1ccc(C(=O)N2CCC(O)(c3ccc(Br)cc3)CC2)cc1NC(=O)NC(C)C` [Example 39, 1-[5-[4-(4-bromophenyl)-4-hydroxy-piperidine-1-carbonyl]-2-methyl-phenyl]-3-propan-2-yl-urea], the inhibition at 100 µM worked out at 79.1%.

As for `CCC(=O)N1CCCC(NC(=O)Nc2cc(C(=O)N3CCC(c4ccc(C#N)cc4)CC3)ccc2C)C1` (stereo not drawn) [Example 295, 3-[5-[4-(4-cyanophenyl)piperidine-1-carbonyl]-2-methyl-phenyl]-1-(1-propanoyl-3-piperidyl)urea], the inhibition at 100 µM was 97.2%.

Regarding `Cc1ccc(NC(=O)NCc2cccnc2)cc1C(=O)N1CCC(c2ccc(C#N)cc2)CC1` [Example 25, 1-[3-[4-(4-cyanophenyl)piperidine-1-carbonyl]-4-methyl-phenyl]-3-(pyridin-3-ylmethyl)urea], the inhibition at 100 µM worked out at 79.7%.

As to `COc1ccc(NC(=O)NCc2ccccc2)cc1C(=O)N1CCC(c2ccc(C#N)cc2)CC1` [3-benzyl-1-[3-[4-(4-cyanophenyl)piperidine-1-carbonyl]-4-methoxyphenyl]urea], the “IC50, inhibition” value is listed as “do not have IC50s in the range of about 0.001 μM to about 30 μM”.

In the case of `Cc1ccc(C(=O)N2CCC(c3ccc(C#N)cc3)CC2)cc1NC(=O)NCc1ccc(-c2csnn2)cc1` [Example 75, 1-[5-[4-(4-cyanophenyl)piperidine-1-carbonyl]-2-methyl-phenyl]-3-[[4-(thiadiazol-4-yl)phenyl]methyl]urea], the inhibition at 100 µM amounted to 87.4%.

Turning to `Cc1ccc(C(=O)N2CCC(c3ccc(C(F)(F)F)cc3)CC2)cc1NC(=O)NCCNS(=O)(=O)N(C)C` [Example 340, 3-[2-(dimethylsulfamoylamino)ethyl]-1-[2-methyl-5-[4-[4-(trifluoromethyl)phenyl]piperidine-1-carbonyl]phenyl]urea], the inhibition at 100 µM is 96%.

For `Cc1ccc(C(=O)N2CCC(c3ccc(C#N)cc3)CC2)cc1NC(=O)NCCNC(=O)C1CCCCC1` [Example 175, N-[2-[[5-[4-(4-cyanophenyl)piperidine-1-carbonyl]-2-methyl-phenyl]carbamoylamino]ethyl]cyclohexanecarboxamide], the inhibition at 100 µM was found to be 96.1%.

For the molecule `Cc1ccc(C(=O)N2CCC(c3ccc(C#N)cc3)CC2)cc1NC(=O)NC1CCS(=O)(=O)C1` (stereo not drawn) [Example 169, 1-[5-[4-(4-cyanophenyl)piperidine-1-carbonyl]-2-methyl-phenyl]-3-(1,1-dioxothiolan-3-yl)urea], the inhibition at 100 µM came to 95.6%.

As to `Cc1ccc(C(=O)N2CCC(c3ccc(C#N)cc3)CC2)cc1NC(=O)NCCO` [Example 90, 1-[5-[4-(4-cyanophenyl)piperidine-1-carbonyl]-2-methyl-phenyl]-3-(2-hydroxyethyl)urea], the inhibition at 100 µM was determined as 93.6%.

As for `Cc1ccc(C(=O)N2CCC(c3ccc(C#N)cc3)CC2)cc1NC(=O)NC1(C)CCS(=O)(=O)C1` (stereo not drawn) [Example 335, 1-[5-[4-(4-cyanophenyl)piperidine-1-carbonyl]-2-methyl-phenyl]-3-(3-methyl-1,1-dioxo-thiolan-3-yl)urea], the inhibition at 100 µM is 78.2%.

For `Cc1ccc(C(=O)N2CCC(c3ccc(C#N)cc3)CC2)cc1NC(=O)N(C)C1CCN(C)CC1` [Example 393, 3-[5-[4-(4-cyanophenyl)piperidine-1-carbonyl]-2-methylphenyl]-1-methyl-1-(1-methylpiperidin-4-yl)urea], the inhibition at 100 µM stood at 65.8%.

Regarding `Cc1ccc(C(=O)N2CCC(c3ccc(C#N)cc3)CC2)cc1NC(=O)NCCN1CCC(F)(F)C1` [Example 254, 1-[5-[4-(4-cyanophenyl)piperidine-1-carbonyl]-2-methyl-phenyl]-3-[2-(3,3-difluoropyrrolidin-1-yl)ethyl]urea], the inhibition at 100 µM was 104%.

With `Cc1ccc(C(=O)N2CCC(c3ccc(C#N)cc3)CC2)cc1NC(=O)NCCCCNC(=O)OC(C)(C)C` [Example 69, tert-butyl N-[4-[[5-[4-(4-cyanophenyl)piperidine-1-carbonyl]-2-methyl-phenyl]carbamoylamino]butyl]carbamate], the inhibition at 100 µM came to 87.9%.

Take `COc1ccc(CCNC(=O)Nc2cc(C(=O)N3CCC(c4ccc(C#N)cc4)CC3)ccc2C)cc1` [Example 64, 1-[5-[4-(4-cyanophenyl)piperidine-1-carbonyl]-2-methyl-phenyl]-3-[2-(4-methoxyphenyl)ethyl]urea]: the inhibition at 100 µM was 94%.
